Three substances from patent publication US20030118983A1, “Rapid screening procedure for inflammation mediators” (priority 2000, published 2003) can be followed below.

Common to all, as to type: cell-based, human
Data set [1] deals with lymphocytes. The data set is described as follows: Plasma membrane integrity of lymphocytes co-incubated with PMA-activated, oxyMb-treated PMNs. Particulars: oxyMb 30 μg/mL. The method, then: (§1) PMNs were incubated with and without L-NMMA (5 mM) and oxyMb (1-1000 μg/mL) for 10 min at 37° C. followed by PMA (200 nM) for 2 h at 37° C. Membrane integrity was determined flow cytometry analyses after a 2-3 min treatment with PI (0.75 mM).
A mixed PMN/lymphocyte preparation was used to determine if the NO. produced by PMNs could affect the plasma membrane integrity of neighboring lymphocytes. PMA-activated and oxyMb (30 μg/mL)-treated PMNs decreased lymphocyte plasma membrane integrity as the ratio of PMNs/lymphocyte increased from 0:1 (76%) to 4:1 (68%) to 10:1 (61%).

Data set [2] has as its system PMNs. The data set is described as follows: Phosphatidylserine externalization on PMN plasma membrane (annexin V). Particulars: oxyMb 30 μg/mL, PMA 1 h. The method, then: Levels of phosphatidylserine on the outer surface of plasma membrane were determined by FITC-labeled annexin V (8 μg per 300,000 PMNs/100 μL) according to manufacturer's instructions (Caltag Laboratories, Burlingame, Calif.). PMNs were incubated with and without L-NMMA (5 mM) and oxyMb (1-1000 μg/mL) for 10 min at 37° C. followed by PMA (200 nM) for 1 h at 37° C. PMNs were then incubated with annexin V for 30 min and propidium iodide (0.75 mM) for 2-3 min at 4° C. prior to flow cytometric analyses.

Data set [3] relates to PMNs. Put plainly: Propidium iodide determination of PMN viability (membrane integrity). Particulars: oxyMb 30 μg/mL, PMA 2 h. The procedure:
as §1

The subject of data set [4] is PMNs. The data set is described as follows: ATP levels in PMA-activated PMNs (bioluminescent somatic cell assay). The following applies: oxyMb 30 μg/mL, PMA 2 h. The method, then:
OxyMb effect on ATP levels in PMA-activated PMNs was measured using the Bioluminescent Somatic Cell Assay Kit according to the manufacturer's instructions. PMNs were incubated with and without L-NIO (5 mM) and oxyMb (1-1000 μg/mL) for 10 min at 37° C. PMNs were subsequently treated with PMA (200 nM) for 2 h at 37° C. PMNs were lysed, frozen at −20° C. and analyzed within 24 h. Emitted light was determined in a camera luminometer, Tropix (Redford, Mass.) using Panchromatic black and white, ISO 20,000, type 612 film, Polaroid (Cambridge, Mass.) with an exposure time of 2.5 min. Level of exposure was measured and digitized with a solid state camera, COHU (San Diego, Calif.) and analyzed using the public domain NIH Image 1.55 program. Statistical analysis. All values are presented as mean±SEM. The Kolmogorov-Smirnov test was used to verify the normal distribution of the data. Groups were compared by using analysis of variance with the Fisher least significant difference (LSD) post hoc procedure. Statistical significance was accepted at P values<0.05.

Data set [5] deals with PMNs. The data set is described as follows: DNA strand breaks in PMA-activated PMNs (tdt-mediated dUTP nick end labeling). Particulars: oxyMb 30 μg/mL, PMA 2 h. The procedure: OxyMb effect on DNA strand breaks in PMA-activated PMNs was measured by flow cytometry using the tdt-mediated dUTP nick end labeling assay (In Situ Cell Death Detection Kit, Fluorescein, Boehringer Mannheim, Indianapolis, Ind.) according to manufacturer's instructions. PMNs were incubated with and without NMMA (5 mM) and oxyMb (1-1000 μg/mL) for 10 min at 37° C. PMNs were subsequently treated with PMA (200 nM) for 2 h at 37° C. Label solutions without terminal transferase or with DNase I (10 U) served as negative and positive controls, respectively.

Data set [6] deals with PMNs. The data set is described as follows: Total nitrite/nitrate levels in filtrates of PMA-stimulated PMNs. The following applies: oxyMb 30 μg/mL. The procedure:
Total nitrate and nitrite levels in filtrates of PMNs were determined by reducing the nitrate to nitrite by nitrate reductase and reacting the resulting nitrite with 2,3-diaminonaphthalene to form a fluorescent product. PMNs (500,000/300 ul HBSS) were treated with oxyMb (1-1000 µg/mL) and SOD (30 U) for 10 min followed by PMA (200 nM) for 1 h at 30° C. Filtrates were collected by centrifugation at 16,000 g for 15 min through Ultrafree-MC 10,000 NMWL filters (Millipore, Bedford, Mass.). Total nitrite levels were determined with a 96-well fluorescence analyzer (IDEXX, Westbrook, Me.). PMNs exposed to the same treatment were analyzed by flow cytometry for DCFH oxidation.

In data set [7] the test system is PMNs. Put plainly: Heme protein effect on DCFH oxidation in unstimulated, LPS and TNFα-, and PMA-stimulated PMNs, with or without NOS inhibitors, SOD or antioxidants. Particulars: for increase in DCFH oxidation compared with 0 and 1000 μg/mL oxyMb: 30 μg/mL oxyMb. The method, then:
DCFH-loaded PMNs were incubated with and without N-methyl-L-arginine (L-NMMA; 5 mM; Calbiochem, San Diego, Calif.) and heme proteins (0.3-1000 μg/mL) at 37 ° C. for 10 minutes. […] In unstimulated and LPS and TNFα -stimulated PMNs, the treatments were oxyMb, or oxyMb+L-NMMA (5 mM). […] RBC cell membranes were ruptured using a micro-ultrasonic cell disrupter, Kontes, Janke and Kukel Gmbh and CO. (Stauten, Germany). […] OxyMb was prepared by mixing excess sodium dithionite with Mb for 1 h and inorganic sulfur compounds were removed by dialyzing in HBSS buffer for 3 h. Percent iron in the ferric state in non-dithionite treated oxyMb or oxyHb was not assessed. […] […] cross-linked Hb was a gift from Walter Reed Army Institute of Research. […] Also, various concentrations of bovine liver Cu, Zn SOD (30-10,000 U/mL; 8-2640 μg/mL) and 30 μg/mL oxyMb were incubated with PMA-stimulated PMNs pretreated with and without L-NMMA. Flow cytometric measurements of oxidant-induced DCF fluorescence were performed as described above.

Data set [8] relates to PMNs. The data set is described as follows: OxyHb-FLEX bound to and internalized into PMNs (flow cytometry). Particulars: concentrations ≧30 μg/mL. The method, then: OxyHb bound to and internalized into PMNs was determined using fluorescein-conjugated oxyHb (Molecular Probes, Eugene, Oreg.). […] Flow cytometric measurements were performed as described above. To visualize intracellular levels of oxyHb-FLEX, whole cell and Z-plane images of PMNs were collected using an Axiovert 135 inverted confocal microscope (Zeiss, Thornwood, N.Y., and Atto Instruments, Rockville, Md.).

Data set [9] deals with PMNs. The data set is described as follows: Heme protein effect on DCFH oxidation in unstimulated, LPS and TNFα-, and PMA-stimulated PMNs, with or without NOS inhibitors, SOD or antioxidants. Particulars: 10,000 U/mL; 26,300 μg/mL, 30 μg/mL oxyMb.
In data set [10] the test system is PMNs. The data set is described as follows: Extracellular O2.− produced by PMA-stimulated PMNs (cytochrome c reduction). The procedure: PMNs (200,000/200 μl HBSS) were treated with various concentrations of oxyMb or bovine liver Cu, Zn SOD (0.05-1000 μg/mL) in a 340 ATTC 96-well reader (SLT-Labinstruments, Salzburg, Austria) and activated with PMA. O2.^− production was determined by measuring reduction of cytochrome c, at 550 nm.

Where [11] appears, read: LPS and TNFα-stimulated PMNs, 30 ug/mL oxyMb.

As to oxymyoglobin [oxyMb], the “lymphocyte plasma membrane integrity” value in data set [1] (PMNs/lymphocyte ratio 0:1, PMA) is 76%. Moreover, the “lymphocyte plasma membrane integrity” value in data set [1] (PMNs/lymphocyte ratio 4:1, PMA) came to 68%. Moreover, the “lymphocyte plasma membrane integrity” value in data set [1] (PMNs/lymphocyte ratio 10:1, PMA) is 61%. In addition, in [2], the “phosphatidylserine positive PMNs” value turned out to be 20% and the “phosphatidylserine positive PMNs, greater than PMNs without oxyMb” value amounted to 5 fold. For the same substance, in data set [3], the “PMN plasma membrane damage (reduced viability)” value is 87% and the “PMN plasma membrane damage, higher than PMNs without oxyMb” value is reported as 3 fold. In data set [4], the “intracellular ATP levels” value was 6 ng/300,000 PMNs and the “intracellular ATP levels, lower than PMNs without oxyMb” value is listed as 9 fold. In [5], the “PMNs containing DNA strand breaks” value is recorded as 50% and the “PMNs containing DNA strand breaks, greater than PMNs without oxyMb” value is 4 fold. Moreover, the “nitrite levels compared with untreated PMNs” value in data set [6] was “doubling”. For the same substance, the “oxyMb concentration at which DCFH oxidation peaked” value in [7] (LPS and TNFα-stimulated PMNs) amounted to 30 µg/mL. Besides, in data set [7] (setting [11]), the “increase in DCFH oxidation compared with 0 μg/mL oxyMb” value was “approximately 6 fold” and the “increase in DCFH oxidation compared with 1000 μg/mL oxyMb” value was roughly 3 fold. In data set [7] (PMA-stimulated PMNs), the “oxyMb concentration of peak response in DCFH oxidation” value came out at 30 µg/mL; the “increase in DCFH oxidation compared with 0 and 1000 μg/mL oxyMb” value is “approximately 3 fold”. The “DCFH fluorescence relative to control levels” value in data set [7] (oxyMb 100 μg/mL in the presence of albumin, data not shown) worked out at 5 times. Further, in data set [7] (unstimulated PMNs), the “increase in DCFH oxidation compared with 0 and 1000 μg/mL oxyMb” value is listed as “approximately 4 fold”.
For “fluorescein-5-EX succinimidyl ester conjugated to oxyhemoglobin [OxyHb-FLEX]”, in [8], the “OxyHb-FLEX bound to and internalized into PMA-stimulated PMNs relative to unstimulated PMNs” value is listed as 2-6 fold.
As for “Bovine liver SOD: bovine liver Cu, Zn superoxide dismutase”, the “effect on DCF fluorescence at highest SOD concentration” value in data set [9] is listed as “reduced DCF fluorescence below control levels”. Further, the “potency in reducing extracellular O2.− relative to oxyMb” value in [10] was 100-1000 fold. Further, the “SOD concentration producing peak levels of DCFH oxidation” value in data set [7] (PMA-stimulated PMNs, in the presence of 30 μg/mL oxyMb) stood at 300 U/mL.
